Test results published in PubChem BioAssay AID1259407 (Chemical Carcinogenesis Research Information System (CCRIS), 2018).
Active and inactive are the calls of the source. How the calls were made is not given here.

Tested on: CCRIS mutagenicity, Ames/micronucleus/aberration tests
Assay: CCRIS mutagenicity studies
[1] = Test System: AMES SALMONELLA TYPHIMURIUM, Strain/Indicator: TA98, Metabolic Activation: NONE, Method: PREINCUBATION
[2] = Test System: AMES SALMONELLA TYPHIMURIUM, Strain/Indicator: TA100, Metabolic Activation: NONE, Method: PREINCUBATION
[3] = Test System: AMES SALMONELLA TYPHIMURIUM, Strain/Indicator: TA1535, Metabolic Activation: NONE, Method: PREINCUBATION

Measured: mutagenic call

Oc1ccc2ccccc2c1N=Nc1ccccc1
inactive: End Point: IN VITRO CHROMOSOMAL ABERRATIONS, Test System: CHO CELLS, Metabolic Activation: NONE inactive; negative | End Point: IN VITRO CHROMOSOMAL ABERRATIONS, Test System: CHO CELLS, Metabolic Activation: RAT, LIVER, S-9, AROCLOR 1254 inactive; negative | Test System: AMES SALMONELLA TYPHIMURIUM, Strain/Indicator: TA97, Metabolic Activation: HAMSTER, LIVER, S-9, AROCLOR 1254 (10%), Method: PREINCUBATION inactive; negative | Test System: AMES SALMONELLA TYPHIMURIUM, Strain/Indicator: TA97, Metabolic Activation: NONE, Method: PREINCUBATION inactive; negative | Test System: AMES SALMONELLA TYPHIMURIUM, Strain/Indicator: TA98, Metabolic Activation: HAMSTER, LIVER, S-9, AROCLOR 1254 (10%), Method: PREINCUBATION inactive; negative | [1] inactive; negative | Test System: AMES SALMONELLA TYPHIMURIUM, Strain/Indicator: TA98, Metabolic Activation: RAT, BLADDER, S-9, PCB, Method: FLUCTUATION TEST inactive; negative | Test System: AMES SALMONELLA TYPHIMURIUM, Strain/Indicator: TA100, Metabolic Activation: HAMSTER, LIVER, S-9, AROCLOR 1254 (10%), Method: PREINCUBATION inactive; negative | [2] inactive; negative | Test System: AMES SALMONELLA TYPHIMURIUM, Strain/Indicator: TA100, Metabolic Activation: RAT, BLADDER, S-9, PCB, Method: FLUCTUATION TEST inactive; negative | Test System: AMES SALMONELLA TYPHIMURIUM, Strain/Indicator: TA100, Metabolic Activation: RAT, LIVER, S-9, AROCLOR 1254 (10%), Method: PREINCUBATION inactive; negative | Test System: AMES SALMONELLA TYPHIMURIUM, Strain/Indicator: TA1535, Metabolic Activation: HAMSTER, LIVER, S-9, AROCLOR 1254 (10%), Method: PREINCUBATION inactive; negative | [3] inactive; negative | Test System: AMES SALMONELLA TYPHIMURIUM, Strain/Indicator: TA1535, Metabolic Activation: RAT, LIVER, S-9, AROCLOR 1254 (10%), Method: PREINCUBATION inactive; negative
active: Test System: AMES SALMONELLA TYPHIMURIUM, Strain/Indicator: TA97, Metabolic Activation: RAT, LIVER, S-9, AROCLOR 1254 (10%), Method: PREINCUBATION active; positive | Test System: AMES SALMONELLA TYPHIMURIUM, Strain/Indicator: TA98, Metabolic Activation: RAT, LIVER, S-9, AROCLOR 1254 (10%), Method: PREINCUBATION active; positive | Test System: AMES SALMONELLA TYPHIMURIUM, Strain/Indicator: TA1538, Metabolic Activation: HAMSTER, LIVER, S-9, AROCLOR 1254, Method: STANDARD PLATE active; positive

Cc1ccc(O)cc1
inactive: Test System: Ames Salmonella typhimurium, Strain/Indicator: TA98, Metabolic Activation: Hamster, Liver, S-9, Aroclor 1254 (10%), Method: Preincubation inactive; negative | Test System: Ames Salmonella typhimurium, Strain/Indicator: TA98, Metabolic Activation: None, Method: Preincubation inactive; negative | Test System: Ames Salmonella typhimurium, Strain/Indicator: TA98, Metabolic Activation: Rat, Liver, S-9, Aroclor 1254 (10%), Method: Preincubation inactive; negative | Test System: Ames Salmonella typhimurium, Strain/Indicator: TA100, Metabolic Activation: Rat, Liver, S-9, Aroclor 1254 (10%), Method: Preincubation inactive; negative | Test System: Ames Salmonella typhimurium, Strain/Indicator: TA1535, Metabolic Activation: Rat, Liver, S-9, Aroclor 1254 (10%), Method: Preincubation inactive; negative | Test System: Ames Salmonella typhimurium, Strain/Indicator: TA1537, Metabolic Activation: Rat, Liver, S-9, Aroclor 1254 (10%), Method: Preincubation inactive; negative

CC(=O)N(O)c1ccc(-c2ccccc2)cc1
active: Test System: AMES SALMONELLA TYPHIMURIUM, Strain/Indicator: TA98(1,8-DNP6), Metabolic Activation: RAT, LIVER, S-9, AROCLOR, Method: PREINCUBATION active; positive | Test System: AMES SALMONELLA TYPHIMURIUM, Strain/Indicator: TA98, Metabolic Activation: DOG, BLADDER, MICROSOMES, Method: PREINCUBATION active; positive | Test System: AMES SALMONELLA TYPHIMURIUM, Strain/Indicator: TA98, Metabolic Activation: DOG, LIVER, MICROSOMES, Method: PREINCUBATION active; positive | Test System: AMES SALMONELLA TYPHIMURIUM, Strain/Indicator: TA98, Metabolic Activation: HUMAN, UROEPITHELIAL CELL, CYTOSOL, Method: PREINCUBATION active; positive | Test System: AMES SALMONELLA TYPHIMURIUM, Strain/Indicator: TA98, Metabolic Activation: HUMAN, UROEPITHELIAL CELL, MICROSOMES, Method: PREINCUBATION active; positive | Test System: AMES SALMONELLA TYPHIMURIUM, Strain/Indicator: TA98, Metabolic Activation: HUMAN, UROEPITHELIAL CELL, S-9, Method: PREINCUBATION active; positive | Test System: AMES SALMONELLA TYPHIMURIUM, Strain/Indicator: TA98, Metabolic Activation: RAT, LIVER, CYTOSOL, Method: PREINCUBATION active; positive | Test System: AMES SALMONELLA TYPHIMURIUM, Strain/Indicator: TA98, Metabolic Activation: RAT, LIVER, MICROSOMES, Method: PREINCUBATION active; positive | Test System: AMES SALMONELLA TYPHIMURIUM, Strain/Indicator: TA98, Metabolic Activation: RAT, LIVER, S-9, AROCLOR, Method: PREINCUBATION active; positive | Test System: AMES SALMONELLA TYPHIMURIUM, Strain/Indicator: YG1024, Metabolic Activation: HUMAN, UROEPITHELIAL CELL, MICROSOMES, Method: PREINCUBATION active; positive | Test System: UDS HUMAN FIBROBLASTS, Strain/Indicator: THY INCORP (NON-S-PHASE), Metabolic Activation: NONE, Method: AUTORADIOGRAPHY active; positive
inactive: Test System: AMES SALMONELLA TYPHIMURIUM, Strain/Indicator: TA98(1,8-DNP6), Metabolic Activation: HUMAN, UROEPITHELIAL CELL, MICROSOMES, Method: PREINCUBATION inactive; negative | Test System: AMES SALMONELLA TYPHIMURIUM, Strain/Indicator: TA98(1,8-DNP6), Metabolic Activation: NONE, Method: PREINCUBATION inactive; negative | [1] inactive; negative | Test System: AMES SALMONELLA TYPHIMURIUM, Strain/Indicator: TA98, Metabolic Activation: RAT, BLADDER, MICROSOMES, Method: PREINCUBATION inactive; negative

CC1=CC(=O)C=CC1=O
inactive: [1] inactive; negative | Test System: AMES SALMONELLA TYPHIMURIUM, Strain/Indicator: TA98, Metabolic Activation: RAT, LIVER, S-9, PHENOBARBITAL AND 5,6-BENZOFLAVONE, Method: PREINCUBATION inactive; negative | [2] inactive; negative | Test System: AMES SALMONELLA TYPHIMURIUM, Strain/Indicator: TA102, Metabolic Activation: NONE, Method: PREINCUBATION inactive; negative | Test System: AMES SALMONELLA TYPHIMURIUM, Strain/Indicator: TA102, Metabolic Activation: RAT, LIVER, S-9, PHENOBARBITAL AND 5,6-BENZOFLAVONE, Method: PREINCUBATION inactive; negative | Test System: AMES SALMONELLA TYPHIMURIUM, Strain/Indicator: TA104, Metabolic Activation: NONE, Method: PREINCUBATION inactive; negative | Test System: AMES SALMONELLA TYPHIMURIUM, Strain/Indicator: TA104, Metabolic Activation: RAT, LIVER, S-9, PHENOBARBITAL AND 5,6-BENZOFLAVONE, Method: PREINCUBATION inactive; negative | Test System: AMES SALMONELLA TYPHIMURIUM, Strain/Indicator: TA2637, Metabolic Activation: NONE, Method: PREINCUBATION inactive; negative
active: Test System: AMES SALMONELLA TYPHIMURIUM, Strain/Indicator: TA2637, Metabolic Activation: RAT, LIVER, S-9, PHENOBARBITAL AND 5,6-BENZOFLAVONE, Method: PREINCUBATION active; positive

CCOc1ccccc1[N+](=O)[O-]
active: [2] active; positive | [3] active; positive
inactive: [1] inactive; negative | Test System: AMES SALMONELLA TYPHIMURIUM, Strain/Indicator: TA1537, Metabolic Activation: NONE, Method: PREINCUBATION inactive; negative | Test System: AMES SALMONELLA TYPHIMURIUM, Strain/Indicator: TA1538, Metabolic Activation: NONE, Method: PREINCUBATION inactive; negative

C[15NH][15N]=O
active: Test System: AMES SALMONELLA TYPHIMURIUM, Strain/Indicator: TA1535, Metabolic Activation: NONE, Method: STANDARD PLATE active; positive | Test System: E. COLI, Strain/Indicator: WP2, Metabolic Activation: NONE, Method: STANDARD PLATE active; positive | Test System: E. COLI, Strain/Indicator: WP2 UVRA, Metabolic Activation: NONE, Method: STANDARD PLATE active; positive
